Data as given in US20200383985A1, “Inhibitors of Protease Activated Receptor-2” (Endosome Therapeutics, Inc., priority 2017, published 2020).
“Also recorded” adds a separate entry of the source.

Legend:
mice [1] = experiment: Visceromotor response (VMR) to colorectal distension (CRD); assay type: in vivo, mouse; details: 30 mg/kg, 100 μL enema into the colon, 30 min before the protease mixture
Protocol: (§1) Noxious colorectal distension (CRD) triggers the visceromotor response (VMR), a nociceptive brainstem reflex consisting of contraction of abdominal muscles, which can be monitored by electromyography. This approach allows assessment of visceral sensitivity in awake mice (Castro, J. et al., Br. J. Pharmacol. 2017, 175(12): 2384-2398). To examine protease-induced hy-persensitivity, a protease mixture (10 nM trypsin+100 nM NE+100 nM CS) or vehicle (saline) (100 μL) was instilled into the colon (enema) of healthy mice. After 15 min, the VMR was measured in response to graded CRD (20-80 mm Hg) with a barostat balloon. In vehicle-treated mice, CRD induced a graded VMR (FIG. 9I). […] Because alterations in the compliance of the colon can alter VMR to CRD, the pressure/volume relationship was measured at all distending pressures. Compliance of the colon was unaffected by the protease mixture or I-343 (FIGS. 21E and F). […]
(§2) Electromyography (EMG) of abdominal muscles was used to monitor VMR to CRD (Eichel, K. et al., Nat. Cell Biol. 2016, 18(3): 303-310). […] The EMG signal was recorded (NL100AK headstage), amplified (NL104), filtered (NL 125/126, Neurolog, Digitimer Ltd, bandpass 50-5000 Hz), and digitized (CED 1401, Cambridge Electronic Design) for off-line analysis using Spike2 (Cambridge Electronic Design). […]

mice [2] = experiment: Colonic compliance in awake mice; assay type: in vivo, mouse; details: awake healthy mice
Protocol: as §1, §2

DRG neurons = experiment: Ca2+ assays in DRG neurons; assay type: cell-based, mouse; details: trypsin 100 nM
From the text: Proteases may induce pain by activating PAR2 on nociceptors or other cell types. To determine the contribution of PAR2 on nociceptors, mice were bred expressing PAR2 flanked by LoxP sites (Par2^lox/lox) with mice expressing Cre recombinase targeted to nociceptors using the NaV1.8 promoter (Scn10a) (Stirling L. C. et al., Pain 2005, 113(1-2): 27-36). Par2-NaV1.8 mice lacked immunoreactive PAR2 in NaV1.8-positive nociceptors (FIG. 1A). Whereas 31% (20 of 65) of small-diameter (<25 μm) DRG neurons from WT mice responded to trypsin (100 nM) with increased [Ca^2+]i, only 6% (3 of 51) of neurons from Par2-NaV1.8 mice responded (FIGS. 1B, 11A, and 11B). Nociception was assessed by measuring withdrawal responses to stimulation of the plantar surface of the hindpaw with von Frey filaments. […] In Par2-NaV1.8 mice, the initial responses were maintained, but responses after 120 min were diminished. […] Trypsin-induced inflammation was markedly diminished in Par2-NaV1.8 mice.
[Ca^2+]i was measured in DRG neurons from WT and Par2-NaV1.8 mice, as described (Tsvetanova, N. G., et al., Nat. Chem. Biol. 2014, 10(12): 1061-1065). […] Fluorescence of individual neurons was measured at 340 nm and 380 nm excitation and 530 nm using a Nikon Eclipse Ti microscope with 20× magnification and a Photometrics CoolSNAP camera. Data were analyzed using Nikon Ti Element Software. […]

| Compound | protease mixture-amplified VMR to CRD (mice [1]) | compliance of the colon (pressure/volume relationship) (mice [2]) | small-diameter DRG neurons responding with increased [Ca2+]i, Par2-NaV1.8 mice (DRG neurons; 3 of 51 neurons) [%] | small-diameter DRG neurons responding with increased [Ca2+]i, WT mice (DRG neurons; 20 of 65 neurons) [%] |
| --- | --- | --- | --- | --- |
| Cc1nc(C(=O)N2CCN(C(=O)c3cn4nc(-c5ccc(F)cc5)cc(C(C)(C)C)c4n3)C(C)(C)C2)n[nH]1 [Compound I-343, (8-(tert-butyl)-6-(4-fluorophenyl)imidazo[1,2-b]pyridazin-2-yl)(2,2-dimethyl-4-(5-methyl-1H-1,2,4-triazole-3-carbonyl)piperazin-1-yl)methanone] | abolished the response | unaffected; also recorded: unchanged |  |  |
| trypsin |  |  | 6 | 31 |
